Measured values as given in patent publication US9266814B2, “Use of nitrooxy organic molecules in feed for reducing methane emission in ruminants, and/or to improve ruminant performance” (DSM IP ASSETS B.V., priority 2010, dated 2016).
Values joined by “and” are separate entries in the source; they are usually repeats but may differ in a detail not shown here. Equal entries are not always repeated. Where two headings read alike, the source gives them in different places. Marks after values point to notes of the source that are not given here.

Assays:
[1] = tested on: methanogenesis in rumen liquor; assay: In vitro test for methane production (modified Hohenheim Forage value Test); format: cell-based; conditions: for inhibition at 0.5 % / inhibition at 2 % / inhibition at 0.005 % / inhibition at 0.01 % / inhibition at 0.05 % / inhibition at 0.1 % / inhibition at 1 %: read-out: effect on methanogenesis (%)
[2] = tested on: methanogenic archaea (mcrA gene); format: in vivo, sheep
protozoa (18S rRNA) = format: in vivo, sheep
[3] = tested on: methane emissions by sheep; format: in vivo
[4] = tested on: total bacteria (16S rRNA); format: in vivo, sheep
[5] = tested on: volatile fatty acid profile and ammonia N concentration in the rumen; format: in vivo, sheep
[6] = tested on: methane production of dairy cows; parameters: species or system Holstein X Friesian dairy cows; conditions: in vivo
[7] = rumen of sheep, 100 mg per animal and day
[8] = rumen of sheep, mcrA gene qPCR, 100 mg per animal and day
[9] = rumen of sheep, 18S rRNA qPCR, 100 mg per animal and day
[10] = sheep, 100 mg per animal and day via ruminal cannula, day 14
[11] = sheep, 100 mg per animal and day via ruminal cannula, day 29
[12] = sheep, 100 mg per animal and day via ruminal cannula, day 30
[13] = sheep, 100 mg per animal and day via ruminal cannula, days 29-30 pooled
[14] = rumen of sheep, 16S rRNA qPCR, 100 mg per animal and day
[15] = rumen of sheep, samples of days 29 and 30, 100 mg per animal and day
[16] = 8 h, comparative example, 0.1% DM, average of two experiments

Structure (SMILES): O=[N+]([O-])OCC(CCc1ccccc1)O[N+](=O)[O-] (racemic) [Compound 2, rac-4-Phenylbutane-1,2-diyl dinitrate]
- inhibition at 0.5 % ([1]; 8 h): 4%
- inhibition at 2 % ([1]; 8 h): 10%

Structure (SMILES): CCOC(=O)CCO[N+](=O)[O-] [Additive 1, ethyl-3-nitrooxypropionate, reference compound]
- Archaea ΔCt (relative abundance in relation to total bacteria) [2, 7]: 0.022
- Archaea [2, 8]: 2.86 * 10^8 copy gene numbers/g fresh matter
- Archaea log 10 [2, 8]: 8.45 log copy gene numbers/g fresh matter
- Total protozoa ΔCt (relative abundance in relation to total bacteria) (protozoa (18S rRNA); [7]): 1.58
- Total protozoa (protozoa (18S rRNA); [9]): 1.87 * 10^10 copy gene numbers/g fresh matter
- Total protozoa log 10 (protozoa (18S rRNA); [9]): 10.2 log copy gene numbers/g fresh matter
- CH4 l, day [3, 10]: 21.9 l, day
- CH4 l/kg intake [3, 10]: 25.6 l/kg intake
- CH4 l, day [3, 11]: 20.9 l, day
- CH4 l/kg intake [3, 11]: 21.7 l/kg intake
- CH4 l, day [3, 12]: 21.8 l, day
- CH4 l/kg intake [3, 12]: 23.2 l/kg intake
- CH4 l, day [3, 13]: 21.5 l, day
- CH4 l/kg intake [3, 13]: 22.6 l/kg intake
- reduction of methane emissions (liters per kg of fresh matter intake) against the control ([3]; sheep, 100 mg per animal and day, day 14): 14%
- Total bacteria [4, 14]: 9.08 * 10^10 copy gene numbers/g fresh matter
- Total bacteria log 10 [4, 14]: 10.9 log copy gene numbers/g fresh matter
- Acetate [5, 15]: 67.5^b mol/100 mol
- Butirate [5, 15]: 2.05 mol/100 mol
- C2/C3 (acetate to propionate ratio) [5, 15]: 4.09^a
- Propionate [5, 15]: 16.6^a mol/100 mol
- Total (volatile fatty acids) [5, 15]: 58.2
- Valerate [5, 15]: 1.94 mol/100 mol
- iso-butirate [5, 15]: 10.1 mol/100 mol
- iso-valerate [5, 15]: 1.79 mol/100 mol

Structure (SMILES): O=[N+]([O-])OCCCO [Compound 1, 3-Nitrooxypropanol]
- inhibition at 0.005 % ([1]; 8 h): 20%
- inhibition at 0.01 % ([1]; 8 h): 79%
- inhibition at 0.05 % ([1]; 8 h): 100%
- inhibition at 0.1 % ([1]; 8 h): 100%
- inhibition at 0.5 % ([1]; 8 h): 100%
- inhibition at 2 % ([1]; 8 h): 100%
- Archaea ([2]; in vivo): 2.86 * 10^8 copy gene numbers/g fresh matter
- Archaea log 10 ([2]; in vivo): 8.34 log copy gene numbers/g fresh matter
- Archaea ΔCt (relative abundance in relation to total bacteria) ([2]; in vivo): 0.020
- Total protozoa (protozoa (18S rRNA); in vivo): 2.51 * 10^10 copy gene numbers/g fresh matter
- Total protozoa log 10 (protozoa (18S rRNA); in vivo): 10.2 log copy gene numbers/g fresh matter
- Total protozoa ΔCt (relative abundance in relation to total bacteria) (protozoa (18S rRNA); in vivo): 1.55
- CH4 l, day ([3]; in vivo): 18.3 l, day and 19.7 l, day and 19.1 l, day and 20.0 l, day
- CH4 l/kg intake ([3]; in vivo): 22.5 and 19.6 and 25.6 and 23.1
- reduction of methane emissions (liters per kg of fresh matter intake) against the control ([3]; in vivo): 23%
- CH4, L/d [6]: 555 L/day and 536 L/day
- CH4, L/kg DMI [6]: 29.9 L/kg DMI and 29.2 L/kg DMI
- CH4, g/d [6]: 398 g/day and 384 g/day
- Total bacteria ([4]; in vivo): 9.74 * 10^10 copy gene numbers/g fresh matter
- Total bacteria log 10 ([4]; in vivo): 11.0 log copy gene numbers/g fresh matter
- Acetate ([5]; in vivo): 64.5^a mol/100 mol
- Butirate ([5]; in vivo): 2.11 mol/100 mol
- C2/C3 (acetate to propionate ratio) ([5]; in vivo): 3.89^a
- Propionate ([5]; in vivo): 17.5^b mol/100 mol
- Total (volatile fatty acids) ([5]; in vivo): 57.1
- Valerate ([5]; in vivo): 1.82 mol/100 mol
- iso-valerate ([5]; in vivo): 1.82 mol/100 mol

Structure (SMILES): CCNS(=O)(=O)CCCO[N+](=O)[O-] [Compound 4, N-Ethyl-3-nitrooxy-propionic sulfonyl amide]
- inhibition at 0.05 % ([1]; 8 h): 10%
- inhibition at 0.1 % ([1]; 8 h): 24%
- inhibition at 0.5 % ([1]; 8 h): 99%
- inhibition at 2 % ([1]; 8 h): 99%

Structure (SMILES): CCC(=O)OCCCO[N+](=O)[O-] [Compound 7, 3-Nitrooxy-propyl propionate]
- inhibition at 0.005 % ([1]; 8 h): 6%
- inhibition at 0.01 % ([1]; 8 h): 21%
- inhibition at 0.05 % ([1]; 8 h): 100%
- inhibition at 0.1 % ([1]; 8 h): 100%

Structure (SMILES): O=C(OCCCO[N+](=O)[O-])c1ccccc1 [Compound 11, 3-Nitrooxy-propyl benzoate]
- inhibition at 0.01 % ([1]; 8 h): 11%
- inhibition at 0.1 % ([1]; 8 h): 99%
- inhibition at 1 % ([1]; 8 h): 99%

Structure (SMILES): CCCCCC(=O)OCCCO[N+](=O)[O-] [Compound 12, 3-Nitrooxy-propyl hexanoate]
- inhibition at 0.01 % ([1]; 8 h): 42%
- inhibition at 0.1 % ([1]; 8 h): 99%
- inhibition at 1 % ([1]; 8 h): 98%

Structure (SMILES): O=[N+]([O-])OCc1ccccc1 [Compound 14, Benzylnitrate]
- inhibition at 0.05 % ([1]; 8 h): 3%
- inhibition at 0.1 % ([1]; 8 h): 37%
- inhibition at 0.5 % ([1]; 8 h): 100%
- inhibition at 2 % ([1]; 8 h): 100%

Structure (SMILES): O=C(NCCO[N+](=O)[O-])c1cccnc1 [Compound 16, N-[2-(Nitrooxy)ethyl]-3-pyridinecarboxamide]
- inhibition at 1 % ([1]; 1% DM, reduction in methane vs control, 8 hours at 39° C., average of two experiments): 100%

Structure (SMILES): O=[N+]([O-])[O-].[Na+] [Na NO3, reference compound]
- effect on methanogenesis (%) ([1]; comparative example, 0.5% DM, average of two experiments): 2%
- effect on methanogenesis (%) ([1]; comparative example, 2% DM, average of two experiments): 23%

Structure (SMILES): O=[N+]([O-])CCCO [reference compound]
- inhibition at 0.1 % [1, 16]: 2%

Structure (SMILES): COCCCO [reference compound]
- inhibition at 0.1 % [1, 16]: 8%

Structure (SMILES): CCOC(=O)CCO [reference compound]
- inhibition at 0.1 % [1, 16]: 6%
